Laboratory results taken from patent publication US20260374773A1, “MULTI-CYCLIC IRAK AND FLT3 INHIBITING COMPOUNDS AND USES THEREOF” (CHILDREN'S HOSPITAL MEDICAL CENTER, priority 2022, published 2026).

Biological target: T1, FLT3 ITD, D835V (Homo sapiens, UniProt P36888, D835V/ITD)
T1 sequence (P36888 27-993 D835V): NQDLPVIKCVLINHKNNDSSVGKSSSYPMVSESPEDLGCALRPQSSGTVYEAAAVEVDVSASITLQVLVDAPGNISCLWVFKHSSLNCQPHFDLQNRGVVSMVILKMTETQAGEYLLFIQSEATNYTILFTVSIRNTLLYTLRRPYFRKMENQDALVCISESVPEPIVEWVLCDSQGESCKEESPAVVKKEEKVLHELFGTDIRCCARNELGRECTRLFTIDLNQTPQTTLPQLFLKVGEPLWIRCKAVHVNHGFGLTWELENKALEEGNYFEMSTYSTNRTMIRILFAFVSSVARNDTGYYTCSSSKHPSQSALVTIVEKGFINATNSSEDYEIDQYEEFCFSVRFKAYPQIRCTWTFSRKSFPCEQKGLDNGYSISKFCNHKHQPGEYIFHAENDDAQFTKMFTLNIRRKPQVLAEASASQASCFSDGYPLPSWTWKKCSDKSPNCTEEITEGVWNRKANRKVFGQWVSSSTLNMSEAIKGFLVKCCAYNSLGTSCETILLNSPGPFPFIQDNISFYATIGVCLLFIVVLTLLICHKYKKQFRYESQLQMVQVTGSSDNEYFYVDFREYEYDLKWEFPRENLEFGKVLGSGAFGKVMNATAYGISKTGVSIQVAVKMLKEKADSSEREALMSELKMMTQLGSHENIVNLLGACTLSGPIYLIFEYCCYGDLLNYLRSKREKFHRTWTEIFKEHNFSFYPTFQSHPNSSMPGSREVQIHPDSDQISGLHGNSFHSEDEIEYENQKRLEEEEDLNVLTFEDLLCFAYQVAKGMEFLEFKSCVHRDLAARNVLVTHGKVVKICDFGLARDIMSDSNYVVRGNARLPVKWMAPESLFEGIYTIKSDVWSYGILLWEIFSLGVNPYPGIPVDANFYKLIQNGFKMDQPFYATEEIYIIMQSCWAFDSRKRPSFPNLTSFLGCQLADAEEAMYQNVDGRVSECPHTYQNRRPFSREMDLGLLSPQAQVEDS
Test: DiscoverX KINOMEscan active site-directed competition binding, FLT3 ITD, D835V
Conditions: no ATP
Source text: (§1) Kinase binding data were obtained for various exemplary compounds prepared according to Examples 1-8 using the DiscoverX KINOMEscan® active site-directed competition binding site-directed assay protocol described below. […] As a result, the data report thermodynamic interaction affinities (Kd values), rather than IC50 values that are dependent on ATP concentrations. The assay uses a DNA-tagged version of the protein kinase, and an immobilized ligand bound to a solid support. Compounds that directly or indirectly prevent kinase binding to the immobilized ligand reduce the amount of kinase captured on the solid support, which is detected using an ultra-sensitive qPCR method. Affinity constants reported from the assay have been reported to be independent of the immobilized ligand used that is coupled to the solid support (See supplemental information in Fabian, M. A. et. al., (2005) Nat. Biotechnol. 23, 329-336; Wodicka, L. M. et. al., (2010) Chem. Biol. 17, 1241-1249.)
Kinase-tagged T7 phage strains were prepared in an E. coli host derived from the BL21 strain. E. coli were grown to log-phase and infected with T7 phage and incubated with shaking at 32 °C until lysis. The lysates were centrifuged and filtered to remove cell debris. The remaining kinases were produced in HEK-293 cells and subsequently tagged with DNA for qPCR detection. Streptavidin-coated magnetic beads were treated with biotinylated small molecule ligands for 30 minutes at room temperature to generate affinity resins for kinase assays. The liganded beads were blocked with excess biotin and washed with blocking buffer (SeaBlock (Pierce), 1% BSA, 0.05% Tween 20, 1 mM DTT) to remove unbound ligand and to reduce non-specific binding. […] Test compounds were prepared as 111x stocks in 100% DMSO. Kds were determined using an 11-point 3-fold compound dilution series with three DMSO control points. All compounds for Kd measurements are distributed by acoustic transfer (non-contact dispensing) in 100% DMSO. The compounds were then diluted directly into the assays such that the final concentration of DMSO was 0.9%. All reactions were performed in polypropylene 384-well plates. Each was a final volume of 0.02 mL. The assay plates were incubated at room temperature with shaking for 1 hour and the affinity beads were washed with wash buffer (1×PBS, 0.05% Tween 20). The beads were then re-suspended in elution buffer (1×PBS, 0.05% Tween 20, 0.5 μM nonbiotinylated affinity ligand) and incubated at room temperature with shaking for 30 minutes. The kinase concentration in the eluates was measured by qPCR. Binding constants (Kds) were calculated with a standard dose-response curve using the Hill equation. The Hill Slope was set to −1. Curves were fitted using a non-linear least square fit with the Levenberg-Marquardt algorithm.
as §1, with “9-12” for “1-8”
Kinase-tagged T7 phage strains were prepared in an E. coli host derived from the BL21 strain. […]

Compound	Kd (Table 19)	Kd (Table 13)
COc1cn2ncc(-c3nc(N[C@H]4CNCC[C@@H]4F)ncc3F)c2nc1C(C)(C)O [Compound 6a, 2-(3-(5-fluoro-2-(((3S,4S)-4-fluoropiperidin-3-yl)amino)pyrimidin-4-yl)-6-methoxypyrazolo[1,5-a]pyrimidin-5-yl)propan-2-ol]	< 170 pM	–
COc1cn2ncc(-c3nc(N[C@@H]4CCCNC4)ncc3F)c2nc1C1CC1 [Compound 14a, (R)-4-(5-cyclopropyl-6-methoxypyrazolo[1,5-a]pyrimidin-3-yl)-5-fluoro-N-(piperidin-3-yl)pyrimidin-2-amine]	< 170 pM	–
COc1cn2ncc(-c3ccnc(N[C@H]4CNCC[C@@H]4F)n3)c2nc1C1CC1 [Compound 7a, 4-(5-cyclopropyl-6-methoxypyrazolo[1,5-a]pyrimidin-3-yl)-N-((3S,4S)-4-fluoropiperidin-3-yl)pyrimidin-2-amine]	< 170 pM	–
COc1cn2ncc(-c3nc(N[C@H]4CNCC[C@@H]4F)c(C#N)cc3F)c2nc1C(C)(C)O [Compound 10, 5-fluoro-2-(((3S,4S)-4-fluoropiperidin-3-yl)amino)-6-(5-(2-hydroxypropan-2-yl)-6-methoxypyrazolo[1,5-a]pyrimidin-3-yl)nicotinonitrile]	–	< 170 pM
COc1cn2ncc(-c3cncc(N[C@H]4CNCC[C@@H]4F)n3)c2nc1C1CC1 [Compound 12a, 6-(5-cyclopropyl-6-methoxypyrazolo[1,5-a]pyrimidin-3-yl)-N-((3S,4S)-4-fluoropiperidin-3-yl)pyrazin-2-amine]	< 170 pM	–
COc1cn2ncc(-c3nc(N[C@H]4CNCC[C@@H]4F)c(F)cc3F)c2nc1C(C)(C)O [Compound 13, 2-(3-(3,5-difluoro-6-(((3S,4S)-4-fluoropiperidin-3-yl)amino)pyridin-2-yl)-6-methoxypyrazolo[1,5-a]pyrimidin-5-yl)propan-2-ol]	–	< 170 pM
COc1cn2ncc(-c3nc(N[C@H]4CNCC[C@@H]4F)c(C#N)cc3F)c2nc1C1CC1 [Compound 7, 6-(5-cyclopropyl-6-methoxypyrazolo[1,5-a]pyrimidin-3-yl)-5-fluoro-2-(((3S,4S)-4-fluoropiperidin-3-yl)amino)nicotinonitrile]	–	< 170 pM
COc1cn2ncc(-c3nc(N[C@H]4CNCC[C@@H]4F)ncc3F)c2nc1C1CC1 [Compound 15a, 4-(5-cyclopropyl-6-methoxypyrazolo[1,5-a]pyrimidin-3-yl)-5-fluoro-N-((3S,4S)-4-fluoropiperidin-3-yl)pyrimidin-2-amine]	< 170 pM	–
